“Also recorded” adds a separate entry of the source.
Tests used:
S. epidermidis = assay: Kill or inhibit growth/proliferation; morphology, biofilm and growth disruption (Tables 5, 6); assay type: cell-based, Staphylococcus epidermidis; parameters: key: A: Peptide aggregates; B: Less hyphal formation; Clumps; Diffuse clumps and small polyps; F: Diffuse growth; H: Thin; I: Growth inhibition; Microcolony formation; Rippled; Small polyps; Thick; W: Halo formation on top, microlonies on bottom; further: test concentration or dose not given here
[1] = test system: microorganisms (e.g., bacteria, yeasts, fungi); assay: Targeting peptide binding to target microorganisms (Table 3); conditions: microorganism(s) the targeting peptide binds, preferably 1x PBS
M. luteus = assay: Kill or inhibit growth/proliferation; morphology, biofilm and growth disruption (Tables 5, 6); assay type: cell-based, Micrococcus luteus; parameters: key: A: Peptide aggregates; B: Less hyphal formation; Clumps; Diffuse clumps and small polyps; F: Diffuse growth; H: Thin; I: Growth inhibition; Microcolony formation; Rippled; Small polyps; Thick; W: Halo formation on top, microlonies on bottom; further: test concentration or dose not given here
C. jeikeium = assay: as above; assay type: cell-based, Corynebacterium jeikeium; parameters: key: A: Peptide aggregates; B: Less hyphal formation; Clumps; Diffuse clumps and small polyps; F: Diffuse growth; H: Thin; I: Growth inhibition; Microcolony formation; Rippled; Small polyps; Thick; W: Halo formation on top, microlonies on bottom; further: test concentration or dose not given here
microorganisms = assay: Peptides having multiple activities (targeting/binding, antimicrobial, growth or phenotype altering)
Excerpt: In certain embodiments, peptides described herein can have multiple activities. Thus for example, a peptide can have both binding/targeting activity and antimicrobial activity. Such peptides can be used, e.g., in a chimeric construct, for any or all of these properties. Thus, for example, a peptide designated “B” in Table 8 can be used as a targeting peptide. If it is also designated G or M it can also be used for antimicrobial activity.

P. aeruginosa = assay: Kill or inhibit growth/proliferation; morphology, biofilm and growth disruption (Tables 5, 6); assay type: cell-based, Pseudomonas aeruginosa; parameters: key: A: Peptide aggregates; B: Less hyphal formation; Clumps; Diffuse clumps and small polyps; F: Diffuse growth; H: Thin; I: Growth inhibition; Microcolony formation; Rippled; Small polyps; Thick; W: Halo formation on top, microlonies on bottom; further: test concentration or dose not given here
E. faecalis = assay: as above; assay type: cell-based, Enterococcus faecalis; parameters: key: A: Peptide aggregates; B: Less hyphal formation; Clumps; Diffuse clumps and small polyps; F: Diffuse growth; H: Thin; I: Growth inhibition; Microcolony formation; Rippled; Small polyps; Thick; W: Halo formation on top, microlonies on bottom; further: test concentration or dose not given here
C. albicans = assay: as above; assay type: cell-based, Candida albicans; parameters: key: A: Peptide aggregates; B: Less hyphal formation; Clumps; Diffuse clumps and small polyps; F: Diffuse growth; H: Thin; I: Growth inhibition; Microcolony formation; Rippled; Small polyps; Thick; W: Halo formation on top, microlonies on bottom; further: test concentration or dose not given here
S. pneumoniae = assay: as above; assay type: cell-based, Streptococcus pneumoniae; parameters: key: A: Peptide aggregates; B: Less hyphal formation; Clumps; Diffuse clumps and small polyps; F: Diffuse growth; H: Thin; I: Growth inhibition; Microcolony formation; Rippled; Small polyps; Thick; W: Halo formation on top, microlonies on bottom; further: test concentration or dose not given here
C. jejuni = assay: as above; assay type: cell-based, Campylobacter jejuni; parameters: key: A: Peptide aggregates; B: Less hyphal formation; Clumps; Diffuse clumps and small polyps; F: Diffuse growth; H: Thin; I: Growth inhibition; Microcolony formation; Rippled; Small polyps; Thick; W: Halo formation on top, microlonies on bottom; further: test concentration or dose not given here
MRSA = assay: as above; assay type: cell-based, Methicillin-resistant Staphylococcus aureus; parameters: key: A: Peptide aggregates; B: Less hyphal formation; Clumps; Diffuse clumps and small polyps; F: Diffuse growth; H: Thin; I: Growth inhibition; Microcolony formation; Rippled; Small polyps; Thick; W: Halo formation on top, microlonies on bottom; further: test concentration or dose not given here
E. coli = assay: as above; assay type: cell-based, Escherichia coli; parameters: key: A: Peptide aggregates; B: Less hyphal formation; Clumps; Diffuse clumps and small polyps; F: Diffuse growth; H: Thin; I: Growth inhibition; Microcolony formation; Rippled; Small polyps; Thick; W: Halo formation on top, microlonies on bottom; further: test concentration or dose not given here
B. subtilis = assay: as above; assay type: cell-based, Bacillus subtilis; parameters: key: A: Peptide aggregates; B: Less hyphal formation; Clumps; Diffuse clumps and small polyps; F: Diffuse growth; H: Thin; I: Growth inhibition; Microcolony formation; Rippled; Small polyps; Thick; W: Halo formation on top, microlonies on bottom; further: test concentration or dose not given here

Substance | Organism, effect (S. epidermidis) | Target(s) ([1]; binding in aqueous buffers depending on peptide solubility) | Organism, effect (M. luteus) | Organism, effect (C. jeikeium) | Activities (microorganisms) | Organism, effect (P. aeruginosa) | Organism, effect (E. faecalis) | Organism, effect (C. albicans) | Organism, effect (S. pneumoniae) | Organism, effect (C. jejuni) | Organism, effect (MRSA) | Organism, effect (E. coli) | Organism, effect (B. subtilis) | Target(s) ([1]; peptide binding conducted in aqueous buffers varied by peptide solubility)
PF-204: peptide having multiple activities (ALQKQDMNLPSVKNQLVFLKSTG; Peptide with targeting and/or antimicrobial activity) | S. epidermidis (C) | S. epidermidis; also recorded: P. mirabilis; also recorded: E. coli; also recorded: P. aeruginosa; also recorded: C. albicans; also recorded: C. jejuni | M. luteus (C) | C. jeikeium (D) | G B | P. aeruginosa (H) | – | – | – | – | – | – | – | –
PF-605: peptide having multiple activities (HYRWNTQWWKY; Peptide with targeting and/or antimicrobial activity) | S. epidermidis (R) | – | – | – | G B | P. aeruginosa (A) | E. faecalis (R) | C. albicans (B) | S. pneumoniae (D) | C. jejuni (R) | MRSA (C) | E. coli (C) | – | –
PF-474: peptide having multiple activities (chain 1 MHRNLVLVKMEPIPHIMIIANQIGIIIEKA; chain 2 MHRNLVLVKMEPIPHIMIIANQIGIIIEKA; Peptide with targeting and/or antimicrobial activity) | S. epidermidis (C) | – | – | – | G B | P. aeruginosa (A) | E. faecalis (C) | C. albicans (B) | S. pneumoniae (D) | C. jejuni (D) | MRSA (D) | E. coli (C) | – | –
PF-577: peptide having multiple activities (chain 1 PFETRESFRVPVIGILGGWDYFMHP; chain 2 PFETRESFRVPVIGILGGWDYFMHP; Peptide with targeting and/or antimicrobial activity) | S. epidermidis (A) | – | – | – | G B | P. aeruginosa (A) | E. faecalis (A) | – | S. pneumoniae (R) | C. jejuni (R) | MRSA (M) | E. coli (A) | – | –
PF-067: peptide having multiple activities (DLIVKVHICFVVKTASGYCYLNKREAQAAI; Peptide with targeting and/or antimicrobial activity) | S. epidermidis (D) | – | M. luteus (R) | C. jeikeium (D) | G B | P. aeruginosa (A) | – | – | S. pneumoniae (D) | C. jejuni (D) | MRSA (M) | – | B. subtilis (C) | –
PF-380: peptide having multiple activities (chain 1 KKIIPLITLFVVTLVG; chain 2 KKIIPLITLFVVTLVG; Peptide with targeting and/or antimicrobial activity) | S. epidermidis (C) | – | – | – | G B | P. aeruginosa (A) | E. faecalis (C) | – | S. pneumoniae (D) | C. jejuni (D) | MRSA (D) | E. coli (C) | – | –
PF-355: peptide having multiple activities (chain 1 WIAIGLLLYFSLKNQ; chain 2 WIAIGLLLYFSLKNQ; Peptide with targeting and/or antimicrobial activity) | S. epidermidis (C) | – | – | – | G B | P. aeruginosa (A) | E. faecalis (D) | – | S. pneumoniae (D) | C. jejuni (D) | MRSA (A) | E. coli (C) | – | –
LNFRAENKILEKIHISLIDTVEGSA [PF-575] | – | – | – | C. jeikeium (A) | G B | P. aeruginosa (A) | – | – | S. pneumoniae (A) | C. jejuni (R) | – | – | – | M. luteus and E. coli and C. albicans and MRSA and S. pneumoniae and E. faecalis and C. jeikeium
ALCSVIKAIELGIINVHLQ [PF-366] | S. epidermidis (R) | – | – | – | G B | P. aeruginosa (A) | E. faecalis (C) | – | S. pneumoniae (C) | C. jejuni (D) | MRSA (D) | E. coli (C) | – | –
PF-063: peptide having multiple activities (chain 1 IAAIIVLVLFQKGLLQIFNWILIQLQ; chain 2 IAAIIVLVLFQKGLLQIFNWILIQLQ; Peptide with targeting and/or antimicrobial activity) | S. epidermidis (R) | – | M. luteus (R) | C. jeikeium (D) | G B | P. aeruginosa (A) | – | – | S. pneumoniae (D) | C. jejuni (D) | MRSA (M) | – | B. subtilis (C) | –
PF-432: peptide having multiple activities (FNGDSEFFLCIAF; Peptide with targeting and/or antimicrobial activity) | S. epidermidis (M) | – | – | – | G B | P. aeruginosa (A) | E. faecalis (D) | – | S. pneumoniae (D) | C. jejuni (D) | MRSA (M) | E. coli (R) | – | –
